Test results from ChEMBL document CHEMBL5321282, “Design, Synthesis, and Biological Evaluation of Esculetin-Furoxan-DEAC Ternary Hybrids for Anti-Triple Negative Breast Cancer” (J Med Chem, 2023).
Calls of active or inactive are those of the source. No cut-off for these calls is given here.

Columns and labels:
MDA-MB-231 [1] = assay: Induction of apoptosis in human MDA-MB-231 cells assessed as effect on ANT level at 5 to 20 nM incubated for 8 hrs by Western blotting analysis; format: functional, cell-based; details: dose 5-20 nM
[2] = Toxicity in BALB/C mouse xenografted with human MDA-MB-231 cells assessed as spleen damage at 2.5 to 5 mg/kg, ip administered every 2 days measured after 3 weeks by H and E staining based analysis; format: organism-based; details: in vivo, 504 h, dose 2.5-5 mg/kg
MDA-MB-231 [3] = assay: Induction of apoptosis in human MDA-MB-231 cells assessed as increase in Bad level incubated for 8 hrs by Western blotting analysis; format: functional, cell-based; details: dose 5-20 nM
MDA-MB-231 [4] = assay: Induction of apoptosis in human MDA-MB-231 cells assessed as increase in CypD level incubated for 8 hrs by Western blotting analysis; format: functional, cell-based; details: dose 5-20 nM
MDA-MB-231 [5] = assay: Induction of apoptosis in human MDA-MB-231 cells assessed as necrotic cells at 20 nM incubated for 24 hrs by Annexin V-FITC/PI staining based flow cytometric analysis (reference value: 0.11%); format: functional
[6] = Drug localization in mitochondria of human MDA-MB-231 cells at 1 uM incubated for 1 hr measured after 40 mins by mito-tracker probe based confocal laser scanning microscopic analysis; format: ADME; details: mda-mb-231, 1.667 h, time 100 min
MDA-MB-231 [7] = assay: Induction of cell cycle arrest in human MDA-MB-231 cells assessed as accumulation of cells at S phase at 20 nM measured after 24 hrs by PI staining based flow cytometric analysis (Rvb =24.1%); format: functional
MDA-MB-231 [8] = assay: Induction of apoptosis in human MDA-MB-231 cells assessed as early apoptotic cells at 10 nM incubated for 24 hrs by Annexin V-FITC/PI staining based flow cytometric analysis (reference value: 4.90%); format: functional
MDA-MB-231 [9] = assay: Induction of cell cycle arrest in human MDA-MB-231 cells assessed as accumulation of cells at S phase at 10 nM measured after 24 hrs by PI staining based flow cytometric analysis (Rvb =24.1%); format: functional
MDA-MB-231 [10] = assay: Induction of apoptosis in human MDA-MB-231 cells assessed as late apoptotic cells at 20 nM incubated for 24 hrs by Annexin V-FITC/PI staining based flow cytometric analysis (reference value: 4.90%); format: functional
MDA-MB-231 [11] = assay: Induction of apoptosis in human MDA-MB-231 cells assessed as necrotic cells at 5 nM incubated for 24 hrs by Annexin V-FITC/PI staining based flow cytometric analysis (reference value: 0.11%); format: functional
[12] = Toxicity in BALB/C mouse xenografted with human MDA-MB-231 cells assessed as lung damage at 2.5 to 5 mg/kg, ip administered every 2 days measured after 3 weeks by H and E staining based analysis; format: organism-based; details: in vivo, 504 h, dose 2.5-5 mg/kg
MDA-MB-231 [13] = assay: Induction of apoptosis in human MDA-MB-231 cells assessed as total apoptotic cells at 5 to 20 nM incubated for 24 hrs by Annexin V-FITC/PI staining based flow cytometric analysis (Rvb =10.03%); format: functional; details: dose 5-20 nM
MDA-MB-231 [14] = assay: Antitumor activity against human MDA-MB-231 cells xenografted in BALB/C mouse assessed as increase in ROS level in tumor at 2.5 to 5 mg/kg, ip administered every 2 days measured after 3 weeks by DHE staining based analysis; format: functional, organism-based; details: dose 2.5-5 mg/kg
[15] = Toxicity in BALB/C mouse xenografted with human MDA-MB-231 cells assessed as kidney damage at 2.5 to 5 mg/kg, ip administered every 2 days measured after 3 weeks by H and E staining based analysis; format: organism-based; details: in vivo, 504 h, dose 2.5-5 mg/kg
MDA-MB-231 [16] = assay: Induction of cell cycle arrest in human MDA-MB-231 cells assessed as accumulation of cells at G2 phase at 10 nM measured after 24 hrs by PI staining by flow cytometric analysis (Rvb =18.1%); format: functional
[17] = Toxicity in BALB/C mouse xenografted with human MDA-MB-231 cells assessed as heart damage at 2.5 to 5 mg/kg, ip administered every 2 days measured after 3 weeks by H and E staining based analysis; format: organism-based; details: in vivo, 504 h, dose 2.5-5 mg/kg
[18] = Cytotoxicity against human L02 cells assessed as inhibition in cell growth measured after 48 hrs by MTT assay; format: toxicity, cell-based
MDA-MB-231 [19] = assay: Induction of cell cycle arrest in human MDA-MB-231 cells assessed as accumulation of cells at G2 phase at 5 nM measured after 24 hrs by PI staining by flow cytometric analysis (Rvb =18.1%); format: functional
MDA-MB-231 [20] = assay: Induction of apoptosis in human MDA-MB-231 cells assessed as viable cells at 10 nM incubated for 24 hrs by Annexin V-FITC/PI staining based flow cytometric analysis (reference value: 90.1%); format: functional; details: read-out: Activity
[21] = Cytotoxicity against human MCF-10A cells assessed as inhibition in cell growth measured after 48 hrs by MTT assay; format: toxicity, cell-based
MDA-MB-231 [22] = assay: Induction of apoptosis in human MDA-MB-231 cells assessed as necrotic cells at 10 nM incubated for 24 hrs by Annexin V-FITC/PI staining based flow cytometric analysis (reference value: 0.11%); format: functional
MDA-MB-231 [23] = assay: Induction of mitochondrial membrane potential depolarization in human MDA-MB-231 cells assessed as increase in green fluorescence at 5 to 20 nM incubated for 24 hrs by JC-1 staining based inverted fluorescent microscopic analysis; format: functional, cell-based; details: dose 5-20 nM
MDA-MB-231 [24] = assay: Induction of apoptosis in human MDA-MB-231 cells assessed as increase in cleaved caspase-3 level incubated for 8 hrs by Western blotting analysis; format: functional, cell-based; details: dose 5-20 nM
[25] = Drug localization in mitochondria of human HCT-116 cells at 1 uM incubated for 1 hr measured after 40 mins by mito-tracker probe based confocal laser scanning microscopic analysis; format: ADME; details: hct-116, 1.667 h, time 100 min
HCT-116 = assay: Antiproliferative activity against human HCT-116 cells assessed as inhibition of cell growth measured after 48 hrs by MTT assay; format: functional, cell-based; details: HCT-116, 48 h
MDA-MB-231 [26] = assay: Induction of apoptosis in human MDA-MB-231 cells assessed as decrease in mitochondrial CytC level at 5 to 20 nM incubated for 8 hrs by Western blotting analysis; format: functional, cell-based; details: dose 5-20 nM
MDA-MB-231 [27] = assay: Induction of apoptosis in human MDA-MB-231 cells assessed as increase in Bax level incubated for 24 hrs by Western blotting analysis; format: functional, cell-based; details: dose 5-20 nM
[28] = Selectivity index, ratio of IC50 for cytotoxicity against human MCF-10A cells to IC50 for antiproliferative activity against human MDA-MB-231 cells; format: toxicity, cell-based; details: MCF-10A cells versus MDA-MB-231 cells, read-out: Ratio IC50
MDA-MB-231 [29] = assay: Induction of cell cycle arrest in human MDA-MB-231 cells assessed as accumulation of cells at G2/M phase at 5 to 20 nM measured after 24 hrs by PI staining by flow cytometric analysis (Rvb =11.70%); format: functional; details: dose 5-20 nM
MDA-MB-231 [30] = assay: Antiproliferative activity against human MDA-MB-231 cells assessed as inhibition of cell growth measured after 48 hrs by MTT assay; format: functional, cell-based; details: MDA-MB-231, 48 h
MDA-MB-231 [31] = assay: Induction of apoptosis in human MDA-MB-231 cells assessed as viable cells at 5 nM incubated for 24 hrs by Annexin V-FITC/PI staining based flow cytometric analysis (reference value: 90.1%); format: functional; details: read-out: Activity
MDA-MB-231 [32] = assay: Induction of mitochondrial membrane potential depolarization in human MDA-MB-231 cells assessed as decrease in red fluorescence at 5 to 20 nM incubated for 24 hrs by JC-1 staining based inverted fluorescent microscopic analysis; format: functional, cell-based; details: dose 5-20 nM

CCN(CC)c1ccc2cc(C(=O)OCCCCCOc3cc4ccc(=O)oc4cc3OCCCCCCOc3no[n+]([O-])c3S(=O)(=O)c3ccccc3)c(=O)oc2c1
Activity (MDA-MB-231 [1]): inactive | Activity [2]: Non-Toxic | Activity (MDA-MB-231 [3]): Dose-Dependent Effect | Activity (MDA-MB-231 [4]): Dose-Dependent Effect | Activity (MDA-MB-231 [5]): 3.93% | Drug uptake [6]: Active | Activity (MDA-MB-231 [7]): 21% | Activity (MDA-MB-231 [8]): 21.9% | Activity (MDA-MB-231 [9]): 25.9% | Activity (MDA-MB-231 [10]): 39% | Activity (MDA-MB-231 [11]): 0.26% | Activity [12]: Non-Toxic | Activity (MDA-MB-231 [13]): 71.69% | Activity (MDA-MB-231 [14]): Active | Activity [15]: Non-Toxic | Activity (MDA-MB-231 [16]): 13.8% | Activity [17]: Non-Toxic | IC50 at 48 h [18]: 11.9 µM | Activity (MDA-MB-231 [19]): 12.8% | viability at 0.01 µM (MDA-MB-231 [20]): 47.3% | IC50 at 48 h [21]: > 50 µM | Activity (MDA-MB-231 [22]): 0.83% | Activity (MDA-MB-231 [23]): Active | Activity (MDA-MB-231 [24]): Dose-Dependent Effect | Drug uptake [25]: Active | IC50 (HCT-116): 4.14 µM | Activity (MDA-MB-231 [26]): Active | Activity (MDA-MB-231 [27]): Dose-Dependent Effect | selectivity ratio [28]: > 6250 | Activity (MDA-MB-231 [29]): 22.97% | IC50 (MDA-MB-231 [30]): 0.008 µM | viability at 0.005 µM (MDA-MB-231 [31]): 67.1% | Activity (MDA-MB-231 [32]): Active
